# Results taken from article PMC5281649 (European Journal of Nuclear Medicine and Molecular Imaging, 2016).
# Where two headings read alike, the source gives them in different places.
# Legend:
# [1] = set-up: method as in PMID 22451094; details: elderly subjects; steady-state conditions; plasma; cited from earlier work
# [2] = Safety assessments in this PET study; type: in vivo, human
# Method: The safety of sembragiline was assessed by monitoring vital signs, laboratory tests and adverse events (AEs), and by evaluating the risk of suicide using the Columbia Suicide Severity Rating Scale.
# brain MAO-B enzyme = target: T1, brain MAO-B enzyme (Homo sapiens, UniProt P27338); test: PET with [11C]-L-deprenyl-D2: brain MAO-B inhibition after repeated oral sembragiline; type: in vivo; details: for receptor occupancy at 0.2 mg: 168 h; for receptor occupancy at 0.2 mg / receptor occupancy at 1 mg: EC subjects, read-out: Occ (MAO-B occupancy); for receptor occupancy at 0.2 mg / receptor occupancy at 1 mg / [11C]-L-deprenyl-D2 λk3 post-dose: mean (range); for receptor occupancy at 1 mg: 336 h; for [11C]-L-deprenyl-D2 λk3 post-dose: AD patients
# T1 sequence (P27338 1-520): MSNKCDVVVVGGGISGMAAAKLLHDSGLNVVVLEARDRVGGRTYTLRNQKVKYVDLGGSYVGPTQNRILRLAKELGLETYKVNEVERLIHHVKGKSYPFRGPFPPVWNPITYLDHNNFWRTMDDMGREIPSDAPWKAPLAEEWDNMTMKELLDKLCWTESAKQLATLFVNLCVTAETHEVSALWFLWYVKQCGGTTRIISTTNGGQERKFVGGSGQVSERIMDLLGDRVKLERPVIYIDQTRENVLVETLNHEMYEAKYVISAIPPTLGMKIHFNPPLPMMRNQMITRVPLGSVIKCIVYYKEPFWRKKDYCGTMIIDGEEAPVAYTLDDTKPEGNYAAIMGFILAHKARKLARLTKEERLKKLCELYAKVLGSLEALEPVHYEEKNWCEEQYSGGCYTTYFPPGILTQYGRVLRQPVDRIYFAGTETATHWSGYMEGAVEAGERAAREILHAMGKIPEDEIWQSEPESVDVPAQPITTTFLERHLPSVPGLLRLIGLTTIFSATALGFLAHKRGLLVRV
# Method: The first dose was administered at the study centre under the supervision of study personnel. On subsequent study days, treatment compliance was assured by intake logs and tablet counting.
# At baseline, each subject underwent a PET scan using [^11C]-L-deprenyl-D2 to measure MAO-B enzyme activity in the brain prior to their first dose of allocated medication. The second scan was performed at trough concentrations at steady state prior to the last drug administration. Before each scan, a cannula was inserted into a radial artery and another into an antecubital vein. A sterile phosphate buffer (pH = 7.4) containing radioligand was injected as a bolus over several seconds into the cubital vein.
# A transmission scan was performed using three rotating ^68Ge rod sources. [^11C]-L-Deprenyl-D2 was injected intravenously as a bolus, and emission data were acquired over 63 min using the ECAT EXACT high-resolution system (Siemens Medical Solutions, Malvern, PA, USA). The injected radioactivity was targeted to approximately 300 MBq. The injected mass of deprenyl was to be ≤100 μg, and ≥50–100-fold lower than the typical administered dose of 5–10 mg deprenyl to patients with Parkinson’s disease. The framing was as follows: 9 frames x 10 s, 2 frames x 15 s, 3 frames x 20 s, 4 frames x 30 s, 4 frames x 60 s, 4 frames x 180 s, 7 frames x 360 s. Images were reconstructed using the standard filtered back-projection, with a 2-mm Hanning filter, a zoom factor of 2.17, and a 128 × 128 matrix, and were corrected for attenuation and scatter. A summation PET image was created for each subject and PET session by averaging across all frames. Time–activity curves were then extracted from selected ROIs.
# Arterial blood samples were used for measurement of radioactivity in whole blood and plasma, as well as to determine the parent fraction of the radioligand, using a reversed-phase high-performance liquid chromatography method (Karolinska University Hospital, Solna, Stockholm, Sweden). A catheter was inserted in the radial artery, and arterial blood was collected continuously for 10 min using an automated blood sampling system at a speed of 5 mL/min. Discrete blood samples were drawn approximately 10, 15, 20, 30, 45 and 60 min after each injection of [^11C]-L-deprenyl-D2.
# Time–activity data were analysed as previously described. Briefly, [^11C]-L-deprenyl-D2 was quantified by the two-tissue compartment model with three rate constants (K 1, k 2, k 3) using the PMOD 3.3 software package (PMOD Group, Zurich, Switzerland), where the tissue compartments represent the free plus non-specifically bound and specifically bound radiotracer. The outcome measure λk 3 was calculated as (K 1/k 2)*k 3, using a non-linear approach, and was used as an estimate for specific binding to MAO-B that was independent of perfusion. […] This is because λk3 is independent of perfusion and has better reproducibility than k3 alone.
# [3] = 5 mg loading day 1 then 0.2 mg q.d. days 2–7, frontal cortex, N = 3
# [4] = 5 mg loading day 1 then 0.2 mg q.d. days 2–7, hippocampus, N = 3
# [5] = 5 mg loading day 1 then 0.2 mg q.d. days 2–7, parietal cortex, N = 3
# [6] = 5 mg loading day 1 then 0.2 mg q.d. days 2–7, striatum, N = 3
# [7] = 5 mg loading day 1 then 0.2 mg q.d. days 2–7, thalamus, N = 3
# [8] = 5 mg loading day 1 then 0.2 mg q.d. days 2–7, whole brain, N = 3
smiles,measurement,setting,value
CC(=O)N[C@H]1CC(=O)N(c2ccc(OCc3cccc(F)c3)cc2)C1 [sembragiline],Terminal half-life,[1],50 to 65 h
same,AEs reported as drug-related,[2]; 16 treated subjects (AD and EC),11 of 20
same,"Changes in laboratory parameters, vital signs or ECG measurements",[2]; AD patients and EC subjects,no clinically significant changes
same,Tolerability,"[2]; AD patients and EC subjects, 0.1–5 mg daily for 6–15 days",well tolerated
same,MAO-B inhibition at trough (mean values),"brain MAO-B enzyme; 1 mg, across all brain ROIs and study populations",75–86%
same,MAO-B inhibition (overall range),"brain MAO-B enzyme; 1 mg, six brain ROIs and study populations, overall",71–88%
same,MAO-B inhibition (mean values),"brain MAO-B enzyme; 5-mg dose, across brain ROIs",76–86%
same,receptor occupancy at 0.2 mg,brain MAO-B enzyme; [3],51.7%
same,receptor occupancy at 0.2 mg,brain MAO-B enzyme; [4],51.6%
same,receptor occupancy at 0.2 mg,brain MAO-B enzyme; [5],50.7%
same,receptor occupancy at 0.2 mg,brain MAO-B enzyme; [6],56.1%
same,receptor occupancy at 0.2 mg,brain MAO-B enzyme; [7],53.7%
same,receptor occupancy at 0.2 mg,brain MAO-B enzyme; [8],49.1%
same,receptor occupancy at 1 mg,"brain MAO-B enzyme; 1 mg q.d. for 14 days, frontal cortex, N = 3",76.2%
same,receptor occupancy at 1 mg,"brain MAO-B enzyme; 1 mg q.d. for 14 days, hippocampus, N = 3",83.9%
same,receptor occupancy at 1 mg,"brain MAO-B enzyme; 1 mg q.d. for 14 days, parietal cortex, N = 3",76.1%
same,receptor occupancy at 1 mg,"brain MAO-B enzyme; 1 mg q.d. for 14 days, striatum, N = 3",84.7%
same,receptor occupancy at 1 mg,"brain MAO-B enzyme; 1 mg q.d. for 14 days, thalamus, N = 3",85.7%
same,receptor occupancy at 1 mg,"brain MAO-B enzyme; 1 mg q.d. for 14 days, whole brain, N = 3",75.4%
same,[11C]-L-deprenyl-D2 λk3 post-dose,"brain MAO-B enzyme; 1 mg q.d. for 14 days, frontal cortex, N = 2",0.04 (0.03–0.04)
same,[11C]-L-deprenyl-D2 λk3 post-dose,"brain MAO-B enzyme; 1 mg q.d. for 14 days, hippocampus, N = 2",0.05 (0.05–0.05)
same,[11C]-L-deprenyl-D2 λk3 post-dose,"brain MAO-B enzyme; 1 mg q.d. for 14 days, parietal cortex, N = 2",0.04 (0.03–0.05)
same,[11C]-L-deprenyl-D2 λk3 post-dose,"brain MAO-B enzyme; 1 mg q.d. for 14 days, striatum, N = 2",0.04 (0.04–0.05)
same,[11C]-L-deprenyl-D2 λk3 post-dose,"brain MAO-B enzyme; 1 mg q.d. for 14 days, thalamus, N = 2",0.04 (0.04–0.04)
same,[11C]-L-deprenyl-D2 λk3 post-dose,"brain MAO-B enzyme; 1 mg q.d. for 14 days, whole brain, N = 2",0.04 (0.04–0.05)
same,[11C]-L-deprenyl-D2 λk3 post-dose,"brain MAO-B enzyme; 5 mg loading day 1 then 0.1 mg q.d. days 2–15, frontal cortex, N = 2",0.07 (0.06–0.08)
same,[11C]-L-deprenyl-D2 λk3 post-dose,"brain MAO-B enzyme; 5 mg loading day 1 then 0.1 mg q.d. days 2–15, hippocampus, N = 2",0.11 (0.10–0.11)
same,[11C]-L-deprenyl-D2 λk3 post-dose,"brain MAO-B enzyme; 5 mg loading day 1 then 0.1 mg q.d. days 2–15, parietal cortex, N = 2",0.07 (0.07–0.08)
same,[11C]-L-deprenyl-D2 λk3 post-dose,"brain MAO-B enzyme; 5 mg loading day 1 then 0.1 mg q.d. days 2–15, striatum, N = 2",0.12 (0.11–0.13)
same,[11C]-L-deprenyl-D2 λk3 post-dose,"brain MAO-B enzyme; 5 mg loading day 1 then 0.1 mg q.d. days 2–15, whole brain, N = 2",0.08 (0.08–0.09)
same,[11C]-L-deprenyl-D2 λk3 post-dose,brain MAO-B enzyme; [3],0.06 (0.05–0.07)
same,[11C]-L-deprenyl-D2 λk3 post-dose,brain MAO-B enzyme; [4],0.07 (0.07–0.08)
same,[11C]-L-deprenyl-D2 λk3 post-dose,brain MAO-B enzyme; [5],0.06 (0.05–0.07)
same,[11C]-L-deprenyl-D2 λk3 post-dose,brain MAO-B enzyme; [6],0.08 (0.08–0.08)
same,[11C]-L-deprenyl-D2 λk3 post-dose,brain MAO-B enzyme; [7],0.07 (0.07–0.07)
same,[11C]-L-deprenyl-D2 λk3 post-dose,brain MAO-B enzyme; [8],0.06 (0.06–0.07)
same,[11C]-L-deprenyl-D2 λk3 post-dose,"brain MAO-B enzyme; 5 mg q.d. for 6–9 days, frontal cortex, N = 2",0.04 (0.04–0.04)
same,[11C]-L-deprenyl-D2 λk3 post-dose,"brain MAO-B enzyme; 5 mg q.d. for 6–9 days, hippocampus, N = 2",0.04 (0.03–0.05)
